Results as given in patent publication US10851065B2 (Eisai R&D Management Co., Ltd., priority 2015, dated 2020).

Test system: MCF7 xenograft (ESR1 wild-type human ER+ breast cancer)
Assay: MCF7 xenograft study
Type: in vivo
Conditions: for Tumor Growth Inhibition (TGI): day 17, hydrochloride salt
Method: The ESR1 wild-type human ER+ breast cancer cell line MCF7 (ATCC) was cultured in DMEM media supplemented with 10% FBS at 37° C. in a 5% CO2 atmosphere and kept in the exponential growth phase. The cells were collected in trypsin and re-suspended in a 1:1 mixture of matrigel and HBSS at a final concentration of 5×10^7 cells/mL. A 0.2 mL aliquot of cells was injected subcutaneously into the 3rd mammary fat pad of 6-8 week old female Balb/c nude mice, giving 1×10^7 cells/mouse. When the average tumor volume reached approximately 155 mm^3, 92 animals were randomized prior to treatment.
All of the compounds were dosed orally every day at doses ranging from 1 to 30 mg/kg. Each treatment was started on Day 0 and the administration schedule was continued for 17 days. The administration volume was calculated from the individual mouse body weights prior to dose administration. The body weights were measured daily while the tumor volumes were measured twice a week. Tumor volumes (TV) were calculated based on the formula: TV=length×width^2×0.5
length: largest diameter of tumor (mm)
width: diameter perpendicular to length (mm)
The Tumor Growth Inhibition % (TGI) was calculated according to the following formula: […]
Where Day X is the endpoint measurement.
Data are expressed as the mean±SEM for tumor volume and the mean±SEM for body weight.
The differences in tumor volume during the study period between the vehicle treated and compound treated groups were analyzed by two-way analysis of variance (ANOVA) followed by the Dunnett multiple comparison post hoc test.

CC/C(=C(/c1ccc(OCCNC/C=C/C(=O)N(C)C)cc1)c1ccc2[nH]ncc2c1)c1ccccc1 [compound 1, (E)-4-((2-(4-((E)-1-(1H-indazol-5-yl)-2-phenylbut-1-en-1-yl)phenoxy)ethyl)amino)-N,N-dimethylbut-2-enamide]
Tumor Growth Inhibition (TGI) (1 mg/kg QD oral): 19% | Tumor Growth Inhibition (TGI) (3 mg/kg QD oral): 41% | Tumor Growth Inhibition (TGI) (10 mg/kg QD oral): 68% | Tumor Growth Inhibition (TGI) (30 mg/kg QD oral): 83% | Tolerability / body weight (all doses 1-30 mg/kg QD oral, 17 days, hydrochloride salt): well tolerated with no significant body weight loss
